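Exposure lasted 48 hours, with cells grown in 96-well plates and compounds tested at five concentrations. The concentration for 50% growth inhibition is given as GI50.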 Activity calls are given as the source filed them. Rule as the data show it: active = GI50 up to about 1.1 µM and inactive = higher.
How the values were obtained:
Assay in all cases: DTP human tumour cell line panel, 48 h
[1] = tested on: LXFL 529
[2] = tested on: CAKI-1
[3] = tested on: EKVX
[4] = tested on: HCT-116
[5] = tested on: RXF 393
[6] = tested on: KM12
[7] = tested on: OVCAR-4
[8] = tested on: UO-31
[9] = tested on: SNB-75
[10] = tested on: IGROV-1
[11] = tested on: SF-539
[12] = tested on: SN12C
[13] = tested on: NCI-H226
[14] = tested on: ACHN
[15] = tested on: SK-MEL-2
[16] = tested on: CCRF-CEM
[17] = tested on: Hs-578T
[18] = tested on: MDA-MB-231
[19] = tested on: MDA-N

Structure (SMILES) | GI50 [1] | GI50 [2] | GI50 [3] | GI50 [4] | GI50 [5] | GI50 [6] | GI50 [7] | GI50 [8] | GI50 [9] | GI50 [10] | GI50 [11] | GI50 [12] | GI50 [13] | GI50 [14] | GI50 [15] | GI50 [16] | GI50 [17] | GI50 [18] | GI50 [19]
O=C(CCc1nnc2s/c(=C\c3ccc4c(c3)OCO4)c(=O)n12)Nc1cc(Cl)ccc1Cl | > 100 µM (inactive) | > 100 µM (inactive) | > 100 µM (inactive) | > 50.9 µM (inactive) | > 100 µM (inactive) | > 100 µM (inactive) | > 100 µM (inactive) | > 100 µM (inactive) | > 100 µM (inactive) | > 100 µM (inactive) | > 100 µM (inactive) | > 100 µM (inactive) | > 100 µM (inactive) | > 100 µM (inactive) | > 100 µM (inactive) | > 100 µM (inactive) | – | – | –
CC(=O)Nc1c(C)ccc2c1C(=O)c1ccccc1C2=O | > 100 µM (inactive) | 56.5 µM (inactive) | – | 91.8 µM (inactive) | > 100 µM (inactive) | > 100 µM (inactive) | > 100 µM (inactive) | 77.1 µM (inactive) | 45.7 µM (inactive) | > 100 µM (inactive) | > 100 µM (inactive) | > 100 µM (inactive) | > 100 µM (inactive) | > 100 µM (inactive) | > 100 µM (inactive) | 80.4 µM (inactive) | – | – | –
S=C1NC(c2ccccc2)=NC(Cc2ccccc2)(c2ccccc2)N1c1ccccc1 (stereo not given) | > 100 µM (inactive) | > 100 µM (inactive) | > 100 µM (inactive) | > 100 µM (inactive) | 68.2 µM (inactive) | > 100 µM (inactive) | 42.1 µM (inactive) | > 100 µM (inactive) | 19.7 µM (inactive) | > 100 µM (inactive) | > 100 µM (inactive) | > 100 µM (inactive) | > 100 µM (inactive) | 97.1 µM (inactive) | – | > 100 µM (inactive) | – | – | –
CCOCN/C(N)=N\C#N | > 100 µM (inactive) | > 100 µM (inactive) | > 100 µM (inactive) | > 100 µM (inactive) | 61.8 µM (inactive) | > 100 µM (inactive) | > 10 µM (inactive) | > 100 µM (inactive) | > 100 µM (inactive) | > 100 µM (inactive) | > 100 µM (inactive) | > 100 µM (inactive) | > 100 µM (inactive) | > 100 µM (inactive) | > 100 µM (inactive) | > 100 µM (inactive) | – | – | –
O=C1C(Cl)C(c2ccc(Cl)cc2)N1n1cnc2ccccc2c1=O (stereo not given) | 72.4 µM (inactive) | 40.8 µM (inactive) | 14.5 µM (inactive) | > 100 µM (inactive) | 76 µM (inactive) | 24.8 µM (inactive) | > 100 µM (inactive) | 59.7 µM (inactive) | 26.2 µM (inactive) | 96.2 µM (inactive) | – | > 100 µM (inactive) | > 100 µM (inactive) | > 100 µM (inactive) | > 100 µM (inactive) | 48.6 µM (inactive) | – | – | –
Cn1cc2ccccc2c1-c1nc(N)nc(F)n1 | > 100 µM (inactive) | > 100 µM (inactive) | 64.4 µM (inactive) | > 100 µM (inactive) | 82.8 µM (inactive) | > 100 µM (inactive) | > 100 µM (inactive) | 67.9 µM (inactive) | 47.3 µM (inactive) | > 100 µM (inactive) | > 100 µM (inactive) | > 100 µM (inactive) | 29.5 µM (inactive) | > 100 µM (inactive) | > 100 µM (inactive) | > 100 µM (inactive) | – | – | –
COc1ccc2nc(NC(=O)C(=O)C(C#N)c3ccc(CC#N)cc3)sc2c1 (stereo not given) | > 100 µM (inactive) | > 100 µM (inactive) | 33.5 µM (inactive) | > 100 µM (inactive) | > 100 µM (inactive) | > 100 µM (inactive) | > 100 µM (inactive) | 54.6 µM (inactive) | > 100 µM (inactive) | > 100 µM (inactive) | > 100 µM (inactive) | > 100 µM (inactive) | > 100 µM (inactive) | > 100 µM (inactive) | > 100 µM (inactive) | > 100 µM (inactive) | – | – | –
CCOC(=O)C(NC(=O)c1ccc(/N=N/N(C)C)cc1)C(C)C (stereo not given) | > 100 µM (inactive) | > 100 µM (inactive) | > 100 µM (inactive) | > 100 µM (inactive) | – | > 100 µM (inactive) | > 100 µM (inactive) | > 100 µM (inactive) | > 100 µM (inactive) | > 100 µM (inactive) | > 100 µM (inactive) | > 100 µM (inactive) | > 100 µM (inactive) | > 100 µM (inactive) | > 100 µM (inactive) | > 100 µM (inactive) | – | – | –
C/N=C(/NC)N(C)c1nc(=[N+](C)C)ss1.[O-][Cl+3]([O-])([O-])[O-] | > 100 µM (inactive) | 16.3 µM (inactive) | > 100 µM (inactive) | 62.1 µM (inactive) | > 100 µM (inactive) | > 100 µM (inactive) | – | > 100 µM (inactive) | – | > 100 µM (inactive) | > 100 µM (inactive) | > 100 µM (inactive) | 59.3 µM (inactive) | > 100 µM (inactive) | > 100 µM (inactive) | 61.9 µM (inactive) | – | – | –
CCOc1ccc(NC(=O)C(=O)C(C(=O)c2ccc3ccccc3c2)C2OC(=O)c3ccccc32)cc1 (stereo not given) | 6.9 µM (inactive) | 23.8 µM (inactive) | > 100 µM (inactive) | 15.7 µM (inactive) | – | 32.7 µM (inactive) | 12.5 µM (inactive) | 15.7 µM (inactive) | 15.7 µM (inactive) | 17.6 µM (inactive) | 7.31 µM (inactive) | 17.2 µM (inactive) | 3.31 µM (inactive) | 33.4 µM (inactive) | 15.5 µM (inactive) | 7.08 µM (inactive) | – | – | –
O=C1c2cc(CCl)sc2C(=O)c2ccsc21 | 0.243 µM (active) | 1.72 µM (inactive) | 1.24 µM (inactive) | 0.189 µM (active) | 0.231 µM (active) | 1.62 µM (inactive) | 0.184 µM (active) | 0.301 µM (active) | 0.192 µM (active) | 1.49 µM (inactive) | 0.228 µM (active) | 0.277 µM (active) | 1.69 µM (inactive) | 0.327 µM (active) | 0.153 µM (active) | 0.173 µM (active) | 0.233 µM (active) | 0.232 µM (active) | 0.0183 µM (active)
O=S1(=O)OCCOS(=O)(=O)C1(I)I | 11 µM (inactive) | 17.3 µM (inactive) | 27.5 µM (inactive) | 16.3 µM (inactive) | – | 18.9 µM (inactive) | 19.7 µM (inactive) | 18.7 µM (inactive) | 18.1 µM (inactive) | 25.3 µM (inactive) | 21.7 µM (inactive) | 17.5 µM (inactive) | 15.3 µM (inactive) | – | 22 µM (inactive) | 10.9 µM (inactive) | – | – | –
CNC(=O)NCCCCC(NC(=O)OCc1ccccc1)C(=O)OCc1ccccc1 (stereo not given) | 32.1 µM (inactive) | 23.7 µM (inactive) | 98.9 µM (inactive) | 51.6 µM (inactive) | 16.4 µM (inactive) | 29.9 µM (inactive) | 22.3 µM (inactive) | 18.2 µM (inactive) | 20.2 µM (inactive) | 28.1 µM (inactive) | 19 µM (inactive) | 24.2 µM (inactive) | 60.3 µM (inactive) | 19.1 µM (inactive) | 22 µM (inactive) | 17.9 µM (inactive) | – | – | –
O=C(C#Cc1ccccc1)NC/C=C/c1ccccc1 | 38.2 µM (inactive) | 37.2 µM (inactive) | > 100 µM (inactive) | 41.7 µM (inactive) | 14.8 µM (inactive) | 46.7 µM (inactive) | 48.1 µM (inactive) | 33.4 µM (inactive) | 17.8 µM (inactive) | 55.8 µM (inactive) | 33.3 µM (inactive) | 49.9 µM (inactive) | 31.6 µM (inactive) | 42.6 µM (inactive) | 35.5 µM (inactive) | 36.8 µM (inactive) | – | – | –
CC/C(=N/O)C(C)C(=O)CCC(=O)Nc1ccc(Cl)cc1 (stereo not given) | 54.3 µM (inactive) | > 100 µM (inactive) | > 100 µM (inactive) | > 100 µM (inactive) | > 100 µM (inactive) | > 100 µM (inactive) | > 100 µM (inactive) | > 100 µM (inactive) | 49.9 µM (inactive) | > 100 µM (inactive) | > 100 µM (inactive) | > 100 µM (inactive) | > 100 µM (inactive) | 68.4 µM (inactive) | > 100 µM (inactive) | > 100 µM (inactive) | – | – | –
Nc1nc[n+](Cc2ccccc2CCO)c2[nH]cnc12 | > 100 µM (inactive) | > 100 µM (inactive) | > 100 µM (inactive) | – | > 100 µM (inactive) | > 100 µM (inactive) | > 100 µM (inactive) | 89.3 µM (inactive) | > 100 µM (inactive) | > 100 µM (inactive) | > 100 µM (inactive) | > 100 µM (inactive) | 36.5 µM (inactive) | > 100 µM (inactive) | > 100 µM (inactive) | > 100 µM (inactive) | – | – | –
C#CC1(O)CCC2[C@@H]3CCc4cc(Oc5nc(F)nc(-c6c7ccccc7cn6C)n5)ccc4C3CC[C@@]21C (stereo not given in full) | > 100 µM (inactive) | > 100 µM (inactive) | > 100 µM (inactive) | > 100 µM (inactive) | > 93.1 µM (inactive) | > 100 µM (inactive) | > 100 µM (inactive) | > 62.1 µM (inactive) | > 91.2 µM (inactive) | – | > 100 µM (inactive) | > 100 µM (inactive) | > 100 µM (inactive) | > 100 µM (inactive) | > 100 µM (inactive) | 30.7 µM (inactive) | – | – | –
COc1cccc2c1[C@]1(O)C(O)CCCC21 (stereo not given in full) | > 100 µM (inactive) | > 100 µM (inactive) | > 10 µM (inactive) | > 100 µM (inactive) | > 100 µM (inactive) | > 100 µM (inactive) | > 100 µM (inactive) | > 100 µM (inactive) | > 100 µM (inactive) | > 100 µM (inactive) | > 100 µM (inactive) | > 100 µM (inactive) | > 100 µM (inactive) | > 100 µM (inactive) | > 100 µM (inactive) | > 100 µM (inactive) | – | – | –
